Data taken from patent US5840684A, “Glycopeptide antibiotic derivatives” (Eli Lilly and Company, priority 1995, dated 1998).
Converted amounts (≈) assume the structure as drawn.

Experiments:
[1] = tested on: Staphylococcus aureus S13E; type: cell-based
Method: (§1) The MIC's were determined using a standard broth micro-dilution assay.

[2] = tested on: Staphylococcus aureus SA1199A; test: broth micro-dilution MIC; type: cell-based
Method: as §1

[3] = tested on: Entercoccus faecium 180-1; test: broth micro-dilution MIC; type: cell-based
Method: as §1

[4] = tested on: Staphylococcus aureus X778; test: broth micro-dilution MIC; type: cell-based
Method: as §1

[5] = tested on: Staphylococcus aureus 446; test: broth micro-dilution MIC; type: cell-based
Method: as §1

Entercoccus faecium 276 = test: broth micro-dilution MIC; type: cell-based
Method: as §1

[6] = tested on: Staphylococcus aureus 491; test: broth micro-dilution MIC; type: cell-based
Method: as §1

[7] = tested on: Staphylococcus aureus 447; test: broth micro-dilution MIC; type: cell-based
Method: as §1

[8] = tested on: Streptococcus pyogenes C203; test: broth micro-dilution MIC; type: cell-based
Method: as §1

[9] = tested on: vancomycin-resistant enterococci; test: broth micro-dilution, mean geometric MIC; type: cell-based, Enterococcus faecium and Enterococcus faecalis; conditions: enterococci, 24-hour incubation
[10] = tested on: vancomycin-susceptible enterococci; test: broth micro-dilution, mean geometric MIC; type: cell-based, Enterococcus faecium and Enterococcus faecalis; conditions: enterococci, 24-hour incubation
[11] = tested on: Staphylococcus haemolyticus 415; test: broth micro-dilution MIC; type: cell-based
Method: (§2) The formula I compounds have in vitro and in vivo activity against Gram-positive pathogenic bacteria. The MIC's were determined using a standard broth micro-dilution assay.

[12] = tested on: Staphylococcus haemolyticus 105; test: broth micro-dilution MIC; type: cell-based
Method: as §2

Entercoccus faecium 180 = test: broth micro-dilution MIC; type: cell-based; conditions: Entercoccus faecium 180
Method: as §2

[13] = tested on: Streptococcus pneumoniae P1; test: broth micro-dilution MIC; type: cell-based
Method: as §2

[14] = tested on: Enterococcus gallinarum 245; test: broth micro-dilution MIC; type: cell-based; conditions: Enterococcus gallinarum 245
Method: as §2

Entercoccus faecium 2041 = test: broth micro-dilution MIC; type: cell-based; conditions: Entercoccus faecium 2041
Method: as §2

[15] = tested on: Staphylococcus aureus SA1199B; type: cell-based
Method: as §1

[16] = tested on: Staphylococcus aureus 489; test: broth micro-dilution MIC; type: cell-based
Method: as §1

[17] = tested on: Staphylococcus aureus SA1199; test: broth micro-dilution MIC; type: cell-based
Method: as §1

[18] = tested on: Staphylococcus aureus X400; test: broth micro-dilution MIC; type: cell-based
Method: as §1

[19] = tested on: Staphylococcus epidermidis 270; test: broth micro-dilution MIC; type: cell-based
Method: as §2

Work on `CNC(CC(C)C)C(=O)NC1C(=O)NC(CC(N)=O)C(=O)NC2C(=O)NC3C(=O)NC(C(=O)NC(C(=O)O)c4cc(O)cc(O)c4-c4cc3ccc4O)C(OC3CC(C)(N)C(O)C(C)O3)c3ccc(c(Cl)c3)Oc3cc2cc(c3OC2OC(CO)C(O)C(O)C2OC2CC(C)(NCc3ccc(NC(=O)c4ccc(F)cc4)cc3)C(O)C(C)O2)Oc2ccc(cc2Cl)C1O` (stereo not drawn) [Compound 193] yielded an MIC [1] of at most 0.06 µg/mL, an MIC [2] of at most 0.06 µg/mL and an MIC [3] of at most 0.06 µg/mL. The MIC [4] was at most 0.06 µg/mL, the MIC [5] was 0.5 µg/mL (≈ 0.275 µM) and the MIC (Entercoccus faecium 276) was at most 0.06 µg/mL. The MIC [6] was at most 0.06 µg/mL, the MIC [7] was at most 0.06 µg/mL and the MIC [8] was at most 0.06 µg/mL. For the same compound, the “mean geometric MIC, Vancomycin Resistant Strains” value [9] was 2 µg/mL, the “mean geometric MIC, Vancomycin Sensitive Strains” value [10] was 0.072 µg/mL and the MIC [11] was 1 µg/mL (≈ 0.55 µM). The MIC [12] was 0.5 µg/mL (≈ 0.275 µM), the MIC (Entercoccus faecium 180) was at most 0.06 µg/mL and the MIC [13] was at most 0.06 µg/mL. It also gave an MIC [14] of 1 µg/mL (≈ 0.55 µM) and an MIC (Entercoccus faecium 2041) of at most 0.06 µg/mL.

With `C=CCCCCNC1(C)CC(OC2C(Oc3c4cc5cc3Oc3ccc(cc3Cl)C(OC3CC(C)(N)C(O)C(C)O3)C3NC(=O)C(NC(=O)C5NC(=O)C(CC(N)=O)NC(=O)C(NC(=O)C(CC(C)C)NC)C(O)c5ccc(c(Cl)c5)O4)c4ccc(O)c(c4)-c4c(O)cc(O)cc4C(C(=O)O)NC3=O)OC(CO)C(O)C2O)OC(C)C1O` (stereo not drawn) [Compound 217] the MIC [15] was 0.125 µg/mL (≈ 0.0746 µM), the MIC [1] was at most 0.06 µg/mL and the MIC [16] was at most 0.06 µg/mL. For the same compound, the MIC [2] was at most 0.06 µg/mL, the MIC [3] was at most 0.06 µg/mL and the MIC [4] was at most 0.06 µg/mL. For the same compound, the MIC (Entercoccus faecium 276) was at most 0.06 µg/mL, the MIC [17] was at most 0.06 µg/mL and the MIC [7] was 1 µg/mL (≈ 0.597 µM). The MIC [8] was at most 0.06 µg/mL, the MIC [18] was at most 0.06 µg/mL and the “mean geometric MIC, Vancomycin Resistant Strains” value [9] was 13 µg/mL. The “mean geometric MIC, Vancomycin Sensitive Strains” value [10] was 0.57 µg/mL, the MIC [11] was 8 µg/mL (≈ 4.78 µM) and the MIC [12] was 2 µg/mL (≈ 1.19 µM). The MIC [19] was 0.5 µg/mL (≈ 0.299 µM), the MIC (Entercoccus faecium 180) was 2 µg/mL (≈ 1.19 µM) and the MIC [13] was at most 0.06 µg/mL. The MIC [14] was 8 µg/mL (≈ 4.78 µM) and the MIC (Entercoccus faecium 2041) was at most 0.06 µg/mL.

`CNC(CC(C)C)C(=O)NC1C(=O)NC(CC(N)=O)C(=O)NC2C(=O)NC3C(=O)NC(C(=O)NC(C(=O)O)c4cc(O)cc(O)c4-c4cc3ccc4O)C(OC3CC(C)(N)C(O)C(C)O3)c3ccc(c(Cl)c3)Oc3cc2cc(c3OC2OC(CO)C(O)C(O)C2OC2CC(C)(NCc3ccc(-c4ccccn4)cc3)C(O)C(C)O2)Oc2ccc(cc2Cl)C1O` (stereo not drawn) [Compound 137] was tested, and the MIC [15] was at most 0.06 µg/mL, the MIC [1] was at most 0.06 µg/mL and the MIC [16] was at most 0.06 µg/mL. The MIC [2] was at most 0.06 µg/mL, the MIC [3] was at most 0.06 µg/mL and the MIC [4] was at most 0.06 µg/mL. It also gave an MIC (Entercoccus faecium 276) of at most 0.06 µg/mL, an MIC [17] of at most 0.06 µg/mL and an MIC [7] of 4 µg/mL (≈ 2.27 µM). The MIC [8] was at most 0.06 µg/mL, the MIC [18] was at most 0.06 µg/mL and the “mean geometric MIC, Vancomycin Resistant Strains” value [9] was 6.7 µg/mL. For the same compound, the “mean geometric MIC, Vancomycin Sensitive Strains” value [10] was 0.38 µg/mL, the MIC [11] was 8 µg/mL (≈ 4.55 µM) and the MIC [12] was 2 µg/mL (≈ 1.14 µM). For the same compound, the MIC [19] was 0.5 µg/mL (≈ 0.284 µM), the MIC (Entercoccus faecium 180) was 0.125 µg/mL (≈ 0.071 µM) and the MIC [13] was at most 0.06 µg/mL. The MIC [14] was 8 µg/mL (≈ 4.55 µM) and the MIC (Entercoccus faecium 2041) was at most 0.06 µg/mL.

`CNC(CC(C)C)C(=O)NC1C(=O)NC(CC(N)=O)C(=O)NC2C(=O)NC3C(=O)NC(C(=O)NC(C(=O)O)c4cc(O)cc(O)c4-c4cc3ccc4O)C(OC3CC(C)(N)C(O)C(C)O3)c3ccc(c(Cl)c3)Oc3cc2cc(c3OC2OC(CO)C(O)C(O)C2OC2CC(C)(NCc3ccc(O)cc3)C(O)C(C)O2)Oc2ccc(cc2Cl)C1O` (stereo not drawn) [Compound 136] was tested, and the MIC [15] was at most 0.06 µg/mL, the MIC [1] was at most 0.06 µg/mL and the MIC [16] was at most 0.06 µg/mL. For the same compound, the MIC [2] was at most 0.06 µg/mL, the MIC [3] was at most 0.06 µg/mL and the MIC [4] was at most 0.06 µg/mL. For the same compound, the MIC [5] was at most 0.06 µg/mL, the MIC (Entercoccus faecium 276) was at most 0.06 µg/mL and the MIC [17] was at most 0.06 µg/mL. It also gave an MIC [7] of 2 µg/mL (≈ 1.18 µM), an MIC [8] of at most 0.06 µg/mL and an MIC [18] of at most 0.06 µg/mL. For the same compound, the “mean geometric MIC, Vancomycin Resistant Strains” value [9] was 23 µg/mL, the “mean geometric MIC, Vancomycin Sensitive Strains” value [10] was 0.76 µg/mL and the MIC [11] was 4 µg/mL (≈ 2.35 µM). The MIC [12] was 2 µg/mL (≈ 1.18 µM), the MIC [19] was 1 µg/mL (≈ 0.589 µM) and the MIC (Entercoccus faecium 180) was 2 µg/mL (≈ 1.18 µM). For the same compound, the MIC [13] was at most 0.06 µg/mL, the MIC [14] was 4 µg/mL (≈ 2.35 µM) and the MIC (Entercoccus faecium 2041) was at most 0.06 µg/mL.
